Data from patent US9931320B2, “Parasiticidal oral veterinary compositions comprising systemically-acting active agents, methods and uses thereof” (MERIAL INC., priority 2012, dated 2018).

What was measured:
Format in all cases: in vivo
Amblyomma americanum = assay: Long lasting efficacy against A. americanum on dogs (Example 6, Table 52)
Experimental: (§1) Forty two beagles were allotted to seven groups of six dogs each. Groups 1 and 2 served as untreated controls. Groups 3, 4 and 5 were each treated on Day 0 with three different compositions of the invention described in Tables 30, 31 and 32, respectively, containing Compound A in an amount to deliver a dose of about 20 mg/kg of body weight. Similarly, on Day 0, Groups 6 and 7 were each treated with the compositions described in Tables 30 and 32, respectively, containing Compound A to deliver a dose of about 20 mg/kg of body weight.
(§2) Dogs in Groups 1, 3, 4 and 5 were infested with approximately 50 A. americanum and dogs in Groups 2, 6 and 7 were infested with approximately 50 D. variabilis on Days −1, 42, 56, 70, 77, 84, 91 and 98. Dogs in Groups 1, 2, 3, 6 and 7 were also infested on Day 105. Ticks were counted upon removal at approximately 48 hours post treatment on Day 2 and 48 hours post infestation on Days 44, 58, 72, 79, 86, 93, 100 and 107. Tables 52 and 53 below show the exceptional long-lasting efficacy of the inventive compositions against A. americanum and D. variabilis.

[1] = tested on: Amblyomma americanum (lone star tick); assay: Efficacy against induced Amblyomma americanum infestations on dogs (Example 4); conditions: at least approx. 2.5 mg/kg once on Day 0
Experimental: Two treatment groups were formed, each containing eight dogs each. Dogs in Group 1 were untreated. Dogs in Group 2 were treated once on Day 0 with soft chewable compositions containing Compound A at a concentration to deliver a dose of at least approximately 2.5 mg/kg.
Ticks were counted on Days 2, 9, 16, 23, 30 and 38. The percent efficacy of the treated group versus the untreated control group 48 hours after infestation exceeded 91% at Days 2, 9, 16 and 23, with percent efficacy values of 99.2, 98.7, 99.4 and 91.7, respectively (p-values≤0.001). At Day 38 the percent efficacy was measured at 89.7%.

[2] = Plasma concentration of Compound A in dogs after oral administration (FIG. 5); conditions: soft chews at 20 mg/kg and 40 mg/kg compared with polyethylene glycol/alcohol solution at 25 mg/kg
Text: Although the extremely high bioavailability of the chewable compositions is in part due to the physicochemical properties of the isoxazoline active agents, the high levels observed from the chewable compositions of the invention are made possible by the presence and combination of the non-active excipients, which ensure complete and predictable dissolution of the composition and maintain the active agents in solution in the digestive tract of the animal. […] This plot compares the plasma concentration of an isoxazoline active agent (Compound A) delivered from soft chewable compositions of the invention designed to deliver 20 mg/kg and 40 mg/kg of body weight with administration of a polyethylene glycol/alcohol solution of the active agent at 25 mg/kg body weight. […] This is particularly surprising since the chewable compositions are in the form of a solid that must disintegrate and completely release and solubilize the active agent for efficient absorption during digestion. One would expect the solution to provide higher bioavailability because the active agent is completely dissolved when administered.

Dermacentor variabilis = assay: Long lasting efficacy against D. variabilis on dogs (Example 6, Table 53); conditions: Group 6, composition of Table 30, about 20 mg/kg once on Day 0, dogs
Experimental: as §1, §2

## O=C(CNC(=O)c1ccc(C2=NOC(c3cc(Cl)cc(C(F)(F)F)c3)(C(F)(F)F)C2)c2ccccc12)NCC(F)(F)F (stereo not shown) [Compound A, 4-[5-[3-chloro-5-(trifluoromethyl)phenyl]-4,5-dihydro-5-(trifluoromethyl)-3-isoxazolyl]-N-[2-oxo-2-[(2,2,2-trifluoroethyl)amino]ethyl]-1-naphthalenecarboxamide]
Amblyomma americanum; Group 3, composition of Table 30, about 20 mg/kg once on Day 0, dogs, Day 2
  % Reduction Ticks: 100.0%
Amblyomma americanum; Group 3, composition of Table 30, about 20 mg/kg once on Day 0, dogs, Day 44
  % Reduction Ticks: 98.4%
Amblyomma americanum; Group 3, composition of Table 30, about 20 mg/kg once on Day 0, dogs, Day 58
  % Reduction Ticks: 98.8%
Amblyomma americanum; Group 3, composition of Table 30, about 20 mg/kg once on Day 0, dogs, Day 72
  % Reduction Ticks: 99.5%
Amblyomma americanum; Group 3, composition of Table 30, about 20 mg/kg once on Day 0, dogs, Day 79
  % Reduction Ticks: 94.4%
Amblyomma americanum; Group 3, composition of Table 30, about 20 mg/kg once on Day 0, dogs, Day 86
  % Reduction Ticks: 98.9%
Amblyomma americanum; Group 3, composition of Table 30, about 20 mg/kg once on Day 0, dogs, Day 93
  % Reduction Ticks: 99.5%
Amblyomma americanum; Group 3, composition of Table 30, about 20 mg/kg once on Day 0, dogs, Day 100
  % Reduction Ticks: 95.6%
Amblyomma americanum; Group 3, composition of Table 30, about 20 mg/kg once on Day 0, dogs, Day 107
  % Reduction Ticks: 93.4%
Amblyomma americanum; Group 4, composition of Table 31, about 20 mg/kg once on Day 0, dogs, Day 2
  % Reduction Ticks: 100.0%
Amblyomma americanum; Group 4, composition of Table 31, about 20 mg/kg once on Day 0, dogs, Day 44
  % Reduction Ticks: 99.4%
Amblyomma americanum; Group 4, composition of Table 31, about 20 mg/kg once on Day 0, dogs, Day 58
  % Reduction Ticks: 99.4%
Amblyomma americanum; Group 4, composition of Table 31, about 20 mg/kg once on Day 0, dogs, Day 72
  % Reduction Ticks: 97.7%
Amblyomma americanum; Group 4, composition of Table 31, about 20 mg/kg once on Day 0, dogs, Day 79
  % Reduction Ticks: 88.6%
Amblyomma americanum; Group 4, composition of Table 31, about 20 mg/kg once on Day 0, dogs, Day 86
  % Reduction Ticks: 97.5%
Amblyomma americanum; Group 4, composition of Table 31, about 20 mg/kg once on Day 0, dogs, Day 93
  % Reduction Ticks: 97.7%
Amblyomma americanum; Group 4, composition of Table 31, about 20 mg/kg once on Day 0, dogs, Day 100
  % Reduction Ticks: 90.9%
Amblyomma americanum; Group 5, composition of Table 32, about 20 mg/kg once on Day 0, dogs, Day 2
  % Reduction Ticks: 100.0%
Amblyomma americanum; Group 5, composition of Table 32, about 20 mg/kg once on Day 0, dogs, Day 44
  % Reduction Ticks: 100.0%
Amblyomma americanum; Group 5, composition of Table 32, about 20 mg/kg once on Day 0, dogs, Day 58
  % Reduction Ticks: 99.5%
Amblyomma americanum; Group 5, composition of Table 32, about 20 mg/kg once on Day 0, dogs, Day 72
  % Reduction Ticks: 100.0%
Amblyomma americanum; Group 5, composition of Table 32, about 20 mg/kg once on Day 0, dogs, Day 79
  % Reduction Ticks: 98.8%
Amblyomma americanum; Group 5, composition of Table 32, about 20 mg/kg once on Day 0, dogs, Day 86
  % Reduction Ticks: 97.8%
Amblyomma americanum; Group 5, composition of Table 32, about 20 mg/kg once on Day 0, dogs, Day 93
  % Reduction Ticks: 98.2%
Amblyomma americanum; Group 5, composition of Table 32, about 20 mg/kg once on Day 0, dogs, Day 100
  % Reduction Ticks: 87.8%
[1]; 48 hours after infestation, at Days 2, 9, 16 and 23, Table 10 soft chew
  Percent efficacy versus untreated control group: exceeded 91%
[1]; Day 2, 48 hours after infestation, Table 10 soft chew
  Percent efficacy versus untreated control group: 99.2%
[1]; Day 9, 48 hours after infestation, Table 10 soft chew
  Percent efficacy versus untreated control group: 98.7%
[1]; Day 16, 48 hours after infestation, Table 10 soft chew
  Percent efficacy versus untreated control group: 99.4%
[1]; Day 23, 48 hours after infestation, Table 10 soft chew
  Percent efficacy versus untreated control group: 91.7%
[1]; Day 38, Table 10 soft chew
  Percent efficacy versus untreated control group: 89.7%
[1]; Table 10 soft chew
  Duration of excellent control of Amblyomma americanum: > 30 days
[2]
  Plasma concentration of Compound A: significantly higher plasma levels
Dermacentor variabilis; Day 2
  % Reduction Ticks: 100.0%
Dermacentor variabilis; Day 44
  % Reduction Ticks: 100.0%
Dermacentor variabilis; Day 58
  % Reduction Ticks: 99.5%
Dermacentor variabilis; Day 72
  % Reduction Ticks: 100.0%
Dermacentor variabilis; Day 79
  % Reduction Ticks: 98.8%
Dermacentor variabilis; Day 86
  % Reduction Ticks: 100.0%
Dermacentor variabilis; Day 93
  % Reduction Ticks: 98.9%
